Results as given in paper PMC11237035, “Glutathione determines chronic myeloid leukemia vulnerability to an inhibitor of CMPK and TMPK” (Communications Biology, 2024).
Where “and” joins values, the source holds several entries; their conditions need not be identical. Equal entries are not always repeated.

Columns and labels:
[1] = test system: T315I-Bcr-Abl-32D cells; assay: Western blot of tyrosine phosphorylation and Bcr-Abl downstream signaling, T315I-Bcr-Abl-32D cells; type: cell-based, mouse
From the text: (§1) Supplementary Figure 1. Bcr-Abl-activated downstream signaling in WT- and
(§2) The comparison of Bcr-Abl downstream signaling (Akt, mTorC1, and Stat5) in WT- […]

[2] = test system: untransformed 32D cells; assay: Western blot of tyrosine phosphorylation, untransformed 32D cells; type: cell-based, mouse; conditions: 32D progenitor cells, 2 μM, 4 h, pY99 Western blot
[3] = test system: WT-Bcr-Abl-32D cells; assay: Western blot of tyrosine phosphorylation and Bcr-Abl downstream signaling, WT-Bcr-Abl-32D cells; type: cell-based, mouse
From the text: as §1, §2

[4] = test system: untransformed 32D cells; assay: DNA fiber assay (replication speed), untransformed 32D cells; type: cell-based, mouse; conditions: UK-5099 25 μM, 16 h
Method: (§3) The workflow of DNA fiber labeling (Right). The representative labeled fibers are shown below. Replication speed in kb/min was calculated by the measured length of IdU (green) linking to CldU (red) in μm with a conversion factor of 0.34 μm/kb divided by the duration of the labeling pulse (Scale bar = 10 μm). The gray triangle indicates the boundary between red fluorescence and green fluorescence. c The measurement of intracellular ROS by the fluorescence intensity of CellROX Green staining using flow cytometric analysis. Data are presented as mean intensity relative to untransformed 32D cells. d, e The measurement of GSSG and GSH. […] Schematic illustration of the metabolic path U-^13C glutamine incorporation into the GSH (left). Gray and white circles indicate ^13C-label, and unlabeled ^12C, respectively. The traced isotopologue abundance of GSH is shown (right).
(§4) The DNA fiber assay was performed as described previously. Briefly, cells were sequentially treated with the medium containing 25 μM of CldU (Sigma-Aldrich, C6891) and then 250 μM of IdU (Sigma-Aldrich, I7125) for 20 min. After washing, cells were suspended in PBS (1000 cells/ μL). 2 μL of cell suspension was spotted on slides. […] The lengths of red- and green-labeled fibers were determined by FluoView3.0 software (Olympus).

[5] = test system: untransformed 32D cells; assay: CCK-8 cell viability assay, untransformed 32D cells; type: cell-based, mouse; conditions: for viability (0 = 100): Untransformed, single replicates
Method: After 72 h, viability assays were performed.
3 independent experiments. Asterisks denote ***p<0.001 from non-paired two-tailed

[6] = test system: T315I-Bcr-Abl-32D cells; assay: CCK-8 cell viability assay, T315I-Bcr-Abl-32D cells; type: cell-based, mouse; conditions: T315I-Bcr-Abl
[7] = test system: T315I-Bcr-Abl-32D cells; assay: dTTP/dCTP pools by RCA-qPCR in T315I-Bcr-Abl-32D cells; type: cell-based, mouse; conditions: T315I; replicates
Method: The methanol extracts were centrifuged
For chloroform extraction, same volume of
attomol of the annealed template-primer.
The RCA products were determined by
The thiophenol compound 3 was
(98.5%) after silica gel chromatography.

[8] = test system: TCCS cells; assay: GSH/GSSG-Glo measurement, TCCS cells; type: cell-based, human
Method: (§5) After 3 days, cells were analyzed by viability assays.
(§6) The GSH/GSSG-Glo™ Assay Kit (Promega, V6611) was used for luminescent-based measurement of cellular GSH and GSSG by Tecan Spark 10 microplate reader.

[9] = test system: untransformed 32D cells; assay: GSH/GSSG-Glo measurement, untransformed 32D cells; type: cell-based, mouse; conditions: UK-5099 25 μM, 16 h
From the text: as §6

[10] = test system: T315I-Bcr-Abl-32D cells; assay: GSH/GSSG-Glo measurement, T315I-Bcr-Abl-32D cells; type: cell-based, mouse; conditions: T315I-Bcr-Abl cells, UK-5099 25 μM, 16 h
From the text: as §6

[11] = test system: T315I-Bcr-Abl-32D cells; assay: DNA fiber assay (replication speed), T315I-Bcr-Abl-32D cells; type: cell-based, mouse; conditions: T315I-Bcr-Abl cells, UK-5099 25 μM, 16 h
Method: as §3, §4

[12] = test system: T315I-Bcr-Abl-32D cells in C3H/HeNCrNarl mice; conditions: T315I-Bcr-Abl-32D mice, UK-5099 10 mg/kg i.p. daily for 14 days alone, vs vehicle
Method: Asterisks denote *p < 0.05, **p < 0.01, ***p < 0.001, or ****p < 0.0001 from unpaired two-tailed Student’s t-test or Log-rank (Mantel–Cox) test.
T315I-Bcr-Abl-transformed and untransformed 32D cells were treated with UK-5099 (25 μM) for 16 h. […] Data are represented as means ± S.D., n > 3 biological replicates.
The animal studies were approved by the biosafety committee at National Taiwan University and conformed to the national guidelines and regulations (IACUC # 20201063). Female C3H/HeNCrNarl mice were used at 6–8 weeks of age (National Laboratory Animal Center, Taiwan).
Mouse CML induction and in vivo therapy
The animal studies were approved by the biosafety committee at National Taiwan
University and conformed to the national guidelines and regulations (IACUC #
20201063). Female C3H/HeNCrNarl mice were used at 6-8 weeks of age (National
Laboratory Animal Center, Taiwan).
suspended in 200 μL of HBSS were injected into each mouse through the tail vein.
suspended in 200 μL of HBSS were tail-vein-injected.
For monitoring CML progress, mice blood was
collected in anticoagulation tubes by submandibular blood collection, followed by
lysing red blood cells with RBC lysis buffer (Invitrogen). After washing, the remaining
cells were suspended in 500 μL of HBSS and subjected to flow cytometry analysis
(FACScalibur, BD Bioscience) with CellQuest software.

[13] = test system: KOPM28 cells; assay: GSH/GSSG-Glo measurement, KOPM28 cells; type: cell-based, human
Method: as §5, §6

[14] = test system: K562 cells; assay: GSH/GSSG-Glo measurement, K562 cells; type: cell-based, human
Method: as §5, §6

[15] = test system: WT-Bcr-Abl-32D cells; assay: CCK-8 cell viability assay, WT-Bcr-Abl-32D cells; type: cell-based, mouse; conditions: WT-Bcr-Abl, single replicates
[16] = molecular target: T1, hCMPK (Homo sapiens, UniProt P30085); assay: biochemical
T1 sequence (P30085 1-196): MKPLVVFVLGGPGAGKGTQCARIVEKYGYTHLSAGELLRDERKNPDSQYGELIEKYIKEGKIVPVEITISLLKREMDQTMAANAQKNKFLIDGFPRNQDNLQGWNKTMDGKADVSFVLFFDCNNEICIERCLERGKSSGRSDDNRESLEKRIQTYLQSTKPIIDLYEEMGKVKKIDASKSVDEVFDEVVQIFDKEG
Method: (§7) Activity assay was measured using the spectrophotometric method by coupling ADP formation to NADH oxidation catalyzed by pyruvate kinase and lactate dehydrogenase as described previously[20]. Each reaction contained 0.4 μg TMPK or 0.3 μg CMPK was incubated at 25 °C followed by using Tecan Spark 10 microplate reader to detect the change in NADH measurement at 340 nm absorption according to the manufacturer’s instructions.

[17] = molecular target: T2, hTMPK (Homo sapiens, UniProt P23919); assay: biochemical
T2 sequence (P23919 1-212): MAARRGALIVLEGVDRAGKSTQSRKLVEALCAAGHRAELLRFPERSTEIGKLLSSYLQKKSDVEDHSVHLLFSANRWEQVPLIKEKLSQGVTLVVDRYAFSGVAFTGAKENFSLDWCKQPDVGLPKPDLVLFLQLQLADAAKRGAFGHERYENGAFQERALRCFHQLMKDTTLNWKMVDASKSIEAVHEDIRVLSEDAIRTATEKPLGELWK
Method: as §7

`Cc1ccc(C(=O)Nc2ccc(CN3CCN(C)CC3)c(C(F)(F)F)c2)cc1C#Cc1cnc2cccnn12` [ponatinib] was tested, and the “Bcr-Abl downstream signals (pAkt-S473, pS6K-T389, pStat5-Y694)” value [1] was “abolished these signals”, the “level of overall tyrosine phosphorylation” value [1] was “reduced” and the “basal level of tyrosine phosphorylation” value [2] was “also reduced”. For the same compound, the “Bcr-Abl downstream signals (pAkt-S473, pS6K-T389, pStat5-Y694)” value [3] was “abolished these signals” and the “level of overall tyrosine phosphorylation” value [3] was “reduced”.
With `N#C/C(=C\c1cn(-c2ccccc2)c2ccccc12)C(=O)O` [UK-5099] the “effect on replication stress, compared with T315I-Bcr-Abl cells” value [4] was “less”, the “Figure 6c, viability relative to NT (=100)” value ([5]; 32D, UK-5099 alone (JMF4073 0), replicates) was 104.358 and 105.293 and 83.4613 and the “Figure 6c, viability relative to NT (=100)” value ([6]; UK-5099 alone (JMF4073 0), replicates) was 99.9363 and 88.5988 and 102.123. The “Figure 6d, dCTP relative to NT (=100)” value [7] was 73.8406 and 210.17 and 73.3898, the “Figure 6d, dTTP relative to NT (=100)” value [7] was 74.5764 and 216.09 and 77.7298 and the GSH level ([8]; TCCS cells, UK-5099 50 μM, 16 h) was “unchanged”. For the same compound, the “GSH% relative to K562 (Figure 7e)” value ([8]; TCCS, UK-5099 treated, K562 vehicle = 100, per replicate) was 96.7924% and 63.772% and 96.1621%, the “effect on GSH reduction, compared with T315I-Bcr-Abl cells” value [9] was “less” and the GSH level [10] was “reduce GSH levels”. For the same compound, the replication fork progression [11] was “slow replication fork progression”, the “survival of leukemia mice” value [12] was “not affected” and the “GSH% relative to K562 (Figure 7e)” value ([13]; KOPM28, UK-5099 treated, K562 vehicle = 100, per replicate) was 180.441% and 154.066% and 117.536%. The GSH level ([13]; KOPM28 cells, UK-5099 50 μM, 16 h) was “unchanged”, the “GSH% relative to K562 (Figure 7e)” value ([14]; K562, UK-5099 treated, K562 vehicle = 100, per replicate) was 52.9657% and 35.7607% and 66.83% and the “cellular level of GSH” value ([14]; K562 cells, UK-5099 50 μM, 16 h) was “bring down”.
For `O=c1[nH]cc(F)c(=O)[nH]1` [Compound 5-FU, 5-Fluorouracil], the “viability (0 = 100)” value ([5]; 5-FU 50 nM) was 73.4167 and 117.13 and 106.182 and 85.6469, the “viability (0 = 100)” value ([5]; 5-FU 100 nM) was 72.9576 and 93.7766 and 105.148 and 51.3899 and the “viability (0 = 100)” value ([5]; 5-FU 200 nM) was 35.4417 and 92.003 and 84.6699 and 48.1556. For the same compound, the “viability (0 = 100)” value ([5]; 5-FU 400 nM) was 6.096 and 36.2787 and 21.177 and 24.9913, the “sensitivity compared among WT-, T315I-Bcr-Abl-32D and untransformed 32D progenitor cells” value ([5]; viability assays) was “similar” and the “viability (0 = 100)” value ([15]; 5-FU 50 nM) was 107.177 and 94.9972 and 84.194 and 79.9956. For the same compound, the “viability (0 = 100)” value ([15]; 5-FU 100 nM) was 65.5177 and 99.8323 and 74.733 and 69.6887, the “viability (0 = 100)” value ([15]; 5-FU 200 nM) was 39.9892 and 67.384 and 54.7054 and 48.7266 and the “viability (0 = 100)” value ([15]; 5-FU 400 nM) was 24.7745 and 56.1347 and 30.6822 and 26.6217. For the same compound, the viability at 0.05 µM ([6]; Mus musculus, 5-FU 50 nM, single replicates, read-out: viability (0 = 100)) was 84.6%, the viability at 0.4 µM ([6]; Mus musculus, 5-FU 400 nM, single replicates, read-out: viability (0 = 100)) was 15% and the “viability (0 = 100)” value ([6]; 5-FU 50 nM, single replicates) was 83.5736 and 80.5085 and 76.4058. For the same compound, the “viability (0 = 100)” value ([6]; 5-FU 100 nM, single replicates) was 62.3323 and 96.9038 and 91.1488 and 80.2051, the “viability (0 = 100)” value ([6]; 5-FU 200 nM, single replicates) was 35.7891 and 57.1142 and 42.6177 and 58.9854 and the “viability (0 = 100)” value ([6]; 5-FU 400 nM, single replicates) was 14.7128 and 7.825 and 11.0955.
For `CCOC(=O)N1CCN(C(=O)Cn2sc3nc(C)cc(C)c3c2=O)CC1` [YMU1], the IC50 [16] was 1800 nM and the IC50 [17] was 720 nM.
